Measurements from EP0293294A2, “Imidazo[1,2-a]pyrimidines and their salts, process and intermediates for their preparation, their use as medicaments and compositions containing them” (ROUSSEL-UCLAF, priority 1987, dated 1988).

Molecular target: récepteurs des benzodiazépines
Assay: Benzodiazepine receptor binding, [³H] flunitrazépam displacement (modified Squires and Braestrup method)
Set-up: species or system rats
Settings: concentration inhibiting by 50% the specific binding of 0,6 nanomoles of [³H] flunitrazépam; rat forebrain membrane preparations; read-out: Liaison aux récepteurs CI50
Description: L'affinité des composés pour les récepteurs des benzodiazépines a été évaluée en utilisant un radioligang [³H] flunitrazépam et la méthode de Squires et Braestrup (Nature, 1977, 266, 732) modifiée.
Les valeurs indiquées dans le tableau II ci-après sont les concentrations nanomolaires du produit testé qui inhibent dans une proportion de 50% la liaison spécifique de 0,6 nanomoles de [³H] flunitrazépam dans des préparations de membranes de cerveaux antérieurs de rats [(CI₅₀)en nanomoles].

SMILES | IC50
CCOC(=O)[C@@H]1C[C@H]1C(=O)c1cn2c(C)c(CC)c(OC)nc2n1 (relative stereo) [Exemple 1, trans 2-(6-éthyl 7-méthoxy 5-méthylimidazo [1,2-a]pyrimidin-2-oyl) cyclopropane carboxylate d'éthyle] | 560 nM
CCc1c(OC)nc2nc(C(=O)[C@@H]3C[C@H]3C)cn2c1C (relative stereo) [Exemple 5, trans (6-éthyl 7-méthoxy 5-méthylimidazo [1,2-a]pyrimidin-2-yl) 2-méthyl cyclopropyl méthanone] | 1780 nM
COc1nc2nc(C(=O)C3(C)CC3)cn2c2c1CCCC2 [Exemple 4, (6,7,8,9-tétrahydro 5-méthoxyimidazo [1,2-a]quinazolin-2-yl) 1-méthyl cyclopropyl méthanone] | 6300 nM

Other lines, results leading:

IC50 | SMILES
180 nM | COc1nc2nc(C(=O)[C@@H]3C[C@H]3Cl)cn2c2c1CCCC2 (relative stereo) [Exemple 6, trans (6,7,8,9-tétrahydro 5-méthoxyimidazo [1,2 a]quinazolin--yl) 2-chlorocyclopropyl méthanone]
1000 nM | COc1nc2nc(C(=O)[C@@H]3C[C@H]3C#N)cn2c2c1CCCC2 (relative stereo) [Exemple 11, trans 2-(6,7,8,9-tétrahydro 5-méthoxyimidazo [1,2-a]quinazolin-2-oyl) cyclopropane carbonitrile]
